How the values were obtained:
[1] = target: T1, human melatonin 2 receptors (human MT2 receptors) (Homo sapiens, UniProt P49286); assay: Melatonin receptor binding inhibitory test (MT2); details: 2-[125I] Iodomelatonin 1 nM solution, membrane fraction of CHO-hMT2 cells, 25° C. for 2.5 hr
T1 construct: expressed in transfected cells
T1 sequence (P49286 1-362): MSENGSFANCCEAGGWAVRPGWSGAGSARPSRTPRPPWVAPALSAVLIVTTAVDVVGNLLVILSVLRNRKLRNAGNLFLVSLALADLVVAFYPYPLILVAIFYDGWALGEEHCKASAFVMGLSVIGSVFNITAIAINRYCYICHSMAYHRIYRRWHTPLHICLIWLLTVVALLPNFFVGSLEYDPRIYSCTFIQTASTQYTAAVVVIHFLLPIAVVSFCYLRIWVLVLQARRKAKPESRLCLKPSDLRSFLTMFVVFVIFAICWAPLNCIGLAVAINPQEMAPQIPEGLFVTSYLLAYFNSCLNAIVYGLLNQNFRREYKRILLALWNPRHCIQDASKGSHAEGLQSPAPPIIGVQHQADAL
Protocol: Melatonin Receptor Binding Inhibitory Test (2) Preparation of CHO-hMT2 Cells Expressing Human Melatonin 2 Receptors A cDNA fragment (SEQ ID NO: 2) encoding full-length of human melatonin 2 receptors (human MT2 receptors) was incorporated into expression vector pCMV-Script (Stratagene, #212220) to give the plasmid that was pCMV-human MT2 receptors expression vector for animal cell expression. CHO-K1 cells (ATCC, #CCL-61) were plated at the concentration of 1.5×10^5 cells/cm^2 in a 6 well plate (ASAHI TECHNO GLASS), and cultured under the conditions of 37° C., 5% CO2 for 24 hr. For gene transfection, solution obtained by blending pCMV-human MT2 receptors expression vector (1.9 μg), Lipofectamine Transfection Reagent (Invitrogen, #18324-012) (11.3 μL) and Minimum Essential Medium Eagle (MEM) medium (Sigma, M8042) (93.8 μL), and reacting at room temperature for 20 min was added to the cells per one well. The transfected cells were cultured in MEM medium containing 10% FBS (Life Technology) and 300 μg/mL Geneticin (GIBCO, #10131), and the cell line that stably expressed the plasmid gene was selected. By a receptor binding assay using 2-[^125I] […] (3) Preparation of Cellular Membrane Fraction of CHO Cell (CHO-hMelR7 and CHO-hMT2) Stably Expressing Human MT1 and MT2 Receptors CHO-hMelR7 and CHO-hMT2 cells were plated using Cellfactory (Nunc, #170009) under the conditions of 1×10^8 cells/2000 mL/flask. The cells were grown to confluent, and recovered by the following method. As the medium for CHO-hMelR7 and CHO-hMT2, MEM α containing 10% FBS and penicillin/streptomycin was used. 300 ng/mL of geneticin was added to the medium for CHO-hMT2. The medium was discarded, cells were washed twice with 200 mL of EDTA/PBS(-), 200 mL of EDTA/PBS(-) was further added, and the cells were stood still at room temperature for 20 min until they were released. The cells were recovered in four 50 mL tubes (Becton Dickinson, #352070), and centrifuged at 1,500 rpm for 10 min at 4° C. using a low speed cooling centrifuge (Hitachi, CF7D2). The supernatant was discarded, the pellets in the four tubes were suspended in 10 mL of PBS(-), and combined in one tube (Becton Dickinson, #352070). The mixture was further centrifuged at 1,500 rpm for 10 min at 4° C., and the obtained pellets were suspended in 20 mL of ice-cooled homogenizing buffer [10 mM NaHCO3, 5 mM EDTA, Protease inhibitor Complete (Roche), pH 7.4]. The cell suspension was homogenized 3 times using a polytron homogenizer at 20,000 rpm for 30 sec. The obtained homogenate was centrifuged (2,000 rpm, 10 min, 4° C.) using a low speed cooling centrifuge. The supernatant was recovered in an ultracentrifugation tube and ultracentrifuged (40,000 rpm, 60 min, 4° C.) using an ultracentrifuge (Beckman, […]). To the obtained pellets was added a suspending buffer [50 mM Tris-HCl, 1 mM EDTA, Protease inhibitor Complete (Roche), pH 7.4], and the pellets were suspended by pipetting. The protein concentration of this suspension was measured, diluted to 2 mg/mL to give cellular membrane fractions of CHO-hMelR7 and CHO-hMT2 cells. […] Protein was quantified using BCA protein assay kit (Pierce) with BSA as the standard. (4) Preparation of Membrane Fraction Suspension Immediately before use, the membrane fractions of CHO-hMelR7 and CHO-hMT2 cells of the above-mentioned (3) were diluted 20-fold with assay buffer (50 mM Tris-HCl, pH 7.7). (5) Preparation of 2-[^125I] […] (6) Binding Reaction The assay buffer (80 μL) of the above-mentioned (4) was added to each well of a 96-well plate (type 3363, Corning). […] (7) Measurement Using a cell harvester (PerkinElmer), the binding reaction mixture in each well of the 96-well plate was transferred to a treated (immersed in 50 mM Tris, pH 7.7 in advance) filter plate (UniFilter GF/C, PerkinElmer) and filtered.

[2] = target: T2, human melatonin 1 receptors (human MT1 receptors) (Homo sapiens, UniProt P48039); assay: Melatonin receptor binding inhibitory test (MT1); details: 2-[125I] Iodomelatonin 400 pM solution, membrane fraction of CHO-hMelR7 cells, 25° C. for 2.5 hr
T2 construct: expressed in transfected cells
T2 sequence (P48039 whole entry): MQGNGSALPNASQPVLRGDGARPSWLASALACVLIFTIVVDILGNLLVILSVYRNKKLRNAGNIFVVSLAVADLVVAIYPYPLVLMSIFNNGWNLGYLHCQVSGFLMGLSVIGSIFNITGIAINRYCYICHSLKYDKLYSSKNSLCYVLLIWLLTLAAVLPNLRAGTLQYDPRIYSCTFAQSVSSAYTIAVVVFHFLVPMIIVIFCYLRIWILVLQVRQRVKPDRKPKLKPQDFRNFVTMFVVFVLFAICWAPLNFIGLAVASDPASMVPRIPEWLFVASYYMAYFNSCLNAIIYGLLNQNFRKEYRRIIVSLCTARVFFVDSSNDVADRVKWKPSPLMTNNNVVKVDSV
Protocol: Biochim Biophys Acta. Vol. 1219(2), pp. 251-259, 1994) to give plasmid pAKKO-hMelR7 for animal cell expression. CHO/dhfr-cells (ATCC, #CRL-9096) were plated at a concentration of 0.3×10^6 cells/dish in a 6 cm culture dish (Becton Dickinson), and cultured under the conditions of 37° C., 5% CO2 for 48 hr. The cells were transfected with pAKKO-hMelR7 plasmid DNA (5 μg) using […] Transfection Kit (Amersham, #27-9268-01). The transfected cells were cultured in Dulbecco's modified Eagle medium (DMEM) (Sigma, #D6046) containing 10% dialyzed FBS ([…]), 1× Non-Essential Amino Acid (Invitrogen, #11140-050) and 50 μg/mL Gentamycin (Invitrogen, #15750-060), and the cell line that stably expressed the plasmid gene was selected. By a receptor binding assay using 2-[^125I] […] (3) Preparation of Cellular Membrane Fraction of CHO Cell (CHO-hMelR7 and CHO-hMT2) Stably Expressing Human MT1 and MT2 Receptors CHO-hMelR7 and CHO-hMT2 cells were plated using Cellfactory (Nunc, #170009) under the conditions of 1×10^8 cells/2000 mL/flask. The cells were grown to confluent, and recovered by the following method. As the medium for CHO-hMelR7 and CHO-hMT2, MEM α containing 10% FBS and penicillin/streptomycin was used. 300 ng/mL of geneticin was added to the medium for CHO-hMT2. The medium was discarded, cells were washed twice with 200 mL of EDTA/PBS(-), 200 mL of EDTA/PBS(-) was further added, and the cells were stood still at room temperature for 20 min until they were released. The cells were recovered in four 50 mL tubes (Becton Dickinson, #352070), and centrifuged at 1,500 rpm for 10 min at 4° C. using a low speed cooling centrifuge (Hitachi, CF7D2). The supernatant was discarded, the pellets in the four tubes were suspended in 10 mL of PBS(-), and combined in one tube (Becton Dickinson, #352070). The mixture was further centrifuged at 1,500 rpm for 10 min at 4° C., and the obtained pellets were suspended in 20 mL of ice-cooled homogenizing buffer [10 mM NaHCO3, 5 mM EDTA, Protease inhibitor Complete (Roche), pH 7.4]. The cell suspension was homogenized 3 times using a polytron homogenizer at 20,000 rpm for 30 sec. The obtained homogenate was centrifuged (2,000 rpm, 10 min, 4° C.) using a low speed cooling centrifuge. The supernatant was recovered in an ultracentrifugation tube and ultracentrifuged (40,000 rpm, 60 min, 4° C.) using an ultracentrifuge (Beckman, […]). To the obtained pellets was added a suspending buffer [50 mM Tris-HCl, 1 mM EDTA, Protease inhibitor Complete (Roche), pH 7.4], and the pellets were suspended by pipetting. The protein concentration of this suspension was measured, diluted to 2 mg/mL to give cellular membrane fractions of CHO-hMelR7 and CHO-hMT2 cells. […] Protein was quantified using BCA protein assay kit (Pierce) with BSA as the standard. (4) Preparation of Membrane Fraction Suspension Immediately before use, the membrane fractions of CHO-hMelR7 and CHO-hMT2 cells of the above-mentioned (3) were diluted 20-fold with assay buffer (50 mM Tris-HCl, pH 7.7). (5) Preparation of 2-[^125I] […] (6) Binding Reaction The assay buffer (80 μL) of the above-mentioned (4) was added to each well of a 96-well plate (type 3363, Corning). […] (7) Measurement Using a cell harvester (PerkinElmer), the binding reaction mixture in each well of the 96-well plate was transferred to a treated (immersed in 50 mM Tris, pH 7.7 in advance) filter plate (UniFilter GF/C, PerkinElmer) and filtered. After filtration, the plate was washed 4 times with the assay buffer, and dried in a dryer (42° C.) for 2 hr or more. 25 μL of a liquid scintillator (MicroScint O, PerkinElmer) was added to each well of the filter plate after drying, and the luminescence of scintillator was measured by TopCount (PerkinElmer) for 1 min. Specific binding is a value obtained by subtracting nonspecific binding from the total binding.

| melting point [°C] | IC50 [1] [nM] | IC50 [2] [nM] | Compound |
| --- | --- | --- | --- |
| 104 to 106 | ≤ 100 |  | CCC(=O)NCCc1cnn2ccc3occc3c12 [Example 1, N-(2-furo[3,2-c]pyrazolo[1,5-a]pyridin-1-ylethyl)propanamide] |
|  |  | ≤ 100 | CC(=O)NCCC1CCc2cnc3c(c21)CCO3 (centres unmarked) [Example 19, N-[2-(1,6,7,8-tetrahydro-2H-cyclopenta[d]furo[2,3-b]pyridin-8-yl)ethyl]acetamide] |
|  |  | ≤ 100 | O=C(NCCC1CCc2cnc3c(c21)CCO3)C1CC1 (centres unmarked) [Example 26, N-[2-(1,6,7,8-tetrahydro-2H-cyclopenta[d]furo[2,3-b]pyridin-8-yl)ethyl]cyclopropanecarboxamide] |
| 163 to 164 |  |  | CCC(=O)NC/C=C1\CCc2ncc3c(c21)CCO3 [Example 32, N-[(2E)-2-(1,2,6,7-tetrahydro-8H-cyclopenta[b]furo[3,2-d]pyridin-8-ylidene)ethyl]propanamide] |

— patent US8273761B2, “Tricyclic compound and medical use thereof” (Takeda Pharmaceutical Company Limited, priority 2006, dated 2012)
